Several values for one entry are separate records, joined by “and”; a condition that tells them apart may be missing. Equal entries are not always repeated. Entries after “also recorded” stand apart in the source; their conditions may differ.
Assays:
Format in all cases: physicochemical
[1] = Photostability protocol: thin film irradiated with xenon arc lamp; details: 1 hour xenon arc lamp; for Photostability: ratio of absorbance at λmax irradiated vs unirradiated, ^a = average of multiple measurements
Summary of the method: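 A 3% solution in EtOH/triglyceride/alkyl benzoate is dried on glass slides into a liquid film of 1.5 mg compound. Films are irradiated 1 h with a Pyrex-filtered 150 W xenon arc lamp (about 100 MED, below 30° C). Washings are read by UV; stability is absorbance at λmax relative to unirradiated film.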

[2] = Lens casting in CR-39 lens formulation; details: benzoyl peroxide initiator, cured 70° C. 18 hours, 0.1 wt %
Description: (§1) Two lens formulations were used. The first (CR-39) was composed of Di(ethylene glycol) bis(allylcarbonate) with 3% wt benzoyl peroxide as initiator. The second lens formulation (NK) was made up of 4 parts NK Ester BPE 100N (Ethoxylated Bisphenol A dimethacrylate) to 1 part NK Ester 9G (PEG 400 dimethacrylate) with 0.4 wt % AIBN as initiator.
(§2) Once the glue had dried the lens matrix (3 g of the lens matrix was treated with 3 mg of absorber, 0.1 wt % and stirred until dissolution complete. 3 g of the matrix was sufficient to prepare 3-4 lenses) was added via pipette to the interior until a convex meniscus was formed at the top of the O-ring. The mixture was then left to settle for 15 minutes during which time any bubbles formed were dispersed. A second microscope slide was then slowly rolled on top of the first to form a seal and expel any air. Taking care to maintain pressure the lens mould was then clamped at the sides with two “Bulldog” clips and cured in an oven at 70° C. for 18 hours. Once the curing process was complete the two microscope slides were separated and the lens removed from the O-ring before washing with acetone and drying/polishing with a soft tissue. The lenses thus formed were approximately 2 mm thick and 15 mm in diameter.
Of particular interest are compounds 163 and 164 which show an increase in λmax on constraining only the nitrogen substituent in a ring i.e. not the double bond. […] Additionally the dimethyl analogue 213 (structure in table 14) was also evaluated.

[3] = Lens casting in NK ester lens formulation; details: AIBN initiator, cured 70° C. 18 hours, 0.1 wt %
Description: as §1, §2

[4] = PMMA film in QUV Weatherometer; details: type A bulbs, 70° C. 8 hours then dark humid 50° C. 4 h
Description: In order to gauge longer term photostability, the PMMA film samples were evaluated in a QUV Weatherometer using type A bulbs with solar irradiance at 70° C. for 8 hours followed by heating in the dark under a humid atmosphere at 50° C. for 4 h. The film was then sandwiched between 2 glass slides to prevent deformation and irradiated. The samples were evaluated by a visual comparison and measurement of transmittance spectra. […] This clearly indicates the suitability of compounds of the first aspect to incorporation into polymeric matrices and films. The relevant transmission spectra are shown in FIG. 11 (142), FIG. 12 (143), FIG. 13 (164), FIG. 14 (213) and FIG. 15 (215) wherein in all of these figures the lower plateau line represents the result following radiation and the upper line prior to irradiation.

[5] = UV absorbance spectrum in solution (λmax, λcrit, extinction coefficients); details: for λcrit: critical wavelength; for E (1%, 1 cm): mass extinction coefficient
Summary of the method: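 Spectra taken on 0.001% solutions in methanol, 10 mm path. Breakthrough is the wavelength where transmittance rises above 1%; steepness is the nm span over which transmittance goes from 1 to 80%.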

[6] = % transmission spectrum of 0.1% solution (breakthrough, steepness); details: for Steepness: distance in nm over which transmittance increases from 1 to 80%; for Breakthrough (1% T at 0.1%): value in nm where transmittance increases beyond 1%, 0.1% solution
Summary of the method: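 Transmission was recorded for 0.1% methanol solutions in a 2 mm cuvette. Breakthrough is the wavelength (nm) at which transmittance exceeds 1%; steepness is the nm span over which transmittance rises from 1 to 80%. Some values are averages of multiple measurements.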

[7] = Solubility in the photostability test solution; details: printed in the photostability (or steepness) column
Description: The properties of these compounds are shown in table 9 with comparator compounds. […] In both cases low solubility meant that photostability could not be measured. This would not preclude use of the compounds in many applications where solubility is not at issue.
In one embodiment, the compounds may provide for improved solubility or stability in standard compositions, including sunscreen compositions. Such solubility may be measured by generating, for example, a 3% solution of the relevant compound in 2:1:1 EtOH:capric/caprylic triglyceride:C12-C15 alkyl benzoate.
1 mL of a 3% solution of the test compound (30 mg of test compound in 1 mL solvent) was prepared in a solvent mix made up of 50% EtOH and 25% capric/caprylic triglyceride and 25% C12-C15 alkyl benzoate. 50 μL of this solution (containing 1.5 mg of test compound) was added carefully to the centre of a glass microscope slide and the volatile components left to evaporate in the dark for at least 3 hours to give a liquid film. The prepared films were then exposed for 1 hour to an Eimac 150 W xenon arc lamp filtered through Pyrex (15 Amp supply current, samples 19 cm from the lamp) previously allowed to warm up for 15 minutes prior to sample exposure. […] One hour's exposure represented a calculated radiation dose (using meter) of approximately 100 MED.

[8] = Stability to epoxy resin curing; details: 2 part epoxy resin, transmittance vs solution
Description: In order to test the stability of a number of compounds to a typical epoxy resin curing system, epoxy adhesive packs were obtained (Parfix 5 minute everyday epoxy adhesive, 24 ml). This is a standard 2 part epoxy resin with the first part composed of a viscous Bisphenol-A/epichlorohydrin polymeric reaction product. The second part is a viscous 30% solution of an aminophenol hardener, T (shown below). Epoxy resins cured by 1° and 2° amines are also available.
To test the stability of the compounds to the curing conditions, a 0.1% wt (1 mg absorber per gram of resin) was prepared and added to a mould comprising a 2 mm thick viton o-ring super glued to a microscope slide. […] Due to difficulties in solubilising the compounds in the mixed resin/hardener in the limited working time as the resin cured; the two barrels of the application syringe were separated with a scalpel allowing the separate application of both parts of the resin system.
This was then mixed thoroughly and immediately added to the moulds as described above. […]

[9] = molar extinction coefficient, in M-1 cm-1 (unit assumed)

SMILES | Photostability (% remains) [1] | Photostability [1] | Stability to lens casting conditions [2] | Stability to lens casting conditions [3] | Longer term photostability in PMMA film [4] | λmax [5] | ε ([5]; UV, at λmax) | λcrit [5] | E (1%, 1 cm) [5] | ε [5, 9] | Steepness [6] | Breakthrough (1% T at 0.1%) [6] | Solubility for photostability measurement [7] | Stability to epoxy resin curing [8]
CCN(/C=C(\C(=O)C(F)(F)F)c1ccccc1)c1ccccc1 [Compound 142, 4-(ethyl(phenyl)amino)-1,1,1-trifluoro-3-phenylbut-3-en-2-one] | 91% and 99% | 99% | stable enough for such incorporation; also recorded: very little if any decomposition | very little if any decomposition | little sign of decomposition after irradiation |  |  |  |  |  |  |  |  | 
O=C(/C(=C\N(c1ccccc1)c1ccccc1)c1ccccc1)C(F)(F)F [Compound 143, 4-(diphenylamino)-1,1,1-trifluoro-3-phenylbut-3-en-2-one] |  |  | stable enough for such incorporation; also recorded: very little if any decomposition | very little if any decomposition | little sign of decomposition after irradiation | 351 nm | 27893 M⁻¹ cm⁻¹ | 381 nm | 760 | 27893 | 32 nm | 402 nm | Not soluble | little or no decomposition occurred
CC1(C)CN(/C=C(\C(=O)C(F)(F)F)c2ccccc2)c2ccccc21 [Compound 213] |  |  | stable enough for such incorporation; also recorded: good stability to the lens curing conditions |  | little sign of decomposition after irradiation | 366 nm |  | 389 nm | 860 | 29690 | 22 nm | 413 nm |  | 
CCCCC(CC)COC(=O)c1ccc2c(c1)CCN2/C=C(\C(=O)C(F)(F)F)c1ccccc1 (stereo not shown) [Compound 215] | 85% |  |  |  | little sign of decomposition after irradiation | 374 nm |  | 391 nm | 1067 | 50515 |  |  |  | 
N#CCC(=O)/C(=C\N1CCc2ccccc21)c1ccccc1 [Compound 249] |  |  |  |  |  | 361 nm |  | 361 nm | 1089 | 31385 |  | 405 nm | Not soluble | 
CC(C)(C)C(=O)/C(=C/N1CCc2cc(C(=O)OCCCOC(=O)c3ccc4c(c3)CCN4/C=C(/C(=O)C(C)(C)C)c3ccccc3)ccc21)c1ccccc1 [Compound 304] |  | 90% and 92% |  |  |  | 365 nm |  | 384 nm | 1023 | 75535 | 19 nm | 401 nm |  | 
COC(=O)c1ccc2c(c1)CCN2/C=C(/C(=O)C(=O)N1CCc2ccccc21)c1ccccc1 [Compound 305] |  | 80% and 75% |  |  |  | 375 nm |  | 391 nm | 1078 | 48709 | 23 nm | 417 nm |  | 
Cc1cc(C)c(C(=O)/C(=C\N2CCc3cc(C(=O)OCCCOC(=O)c4ccc5c(c4)CCN5/C=C(/C(=O)c4c(C)cc(C)cc4C)c4ccccc4)ccc32)c2ccccc2)c(C)c1 [Compound 307] |  | 98, 98% |  |  |  | 370 nm |  | 384 nm | 1251 | 107885 | 22 nm | 402 nm |  | 
CCCCC(CC)COC(=O)c1ccc2c(c1)CCN2/C=C(/C(=O)c1ccncc1)c1ccccc1 (stereo not shown) [Compound 308] |  | 79% |  |  |  | 374 nm |  | 391 nm | 796 | 38378 | 41 nm | 431 nm |  | 
CCCCC(CC)COC(=O)c1ccc2c(c1)CCN2/C=C(/C(=O)C(C)(C)C)c1ccc(Br)cc1 (stereo not shown) [Compound 309] |  | 80% |  |  |  | 366 nm |  | 384 nm | 780 | 42050 | 19 nm | 397 nm |  | 
CCCCC(CC)COC(=O)c1ccc2c(c1)CCN2/C=C(/C(=O)C(C)(C)C)c1ccc(C#N)cc1 (stereo not shown) [Compound 310] |  | 78% and 81% |  |  |  | 368 nm |  | 385 nm | 1039 | 50502 | 22 nm | 402 nm |  | 

Reference: US11512042B2, “Enamine compounds for absorbance of electromagnetic energy” (Commonwealth Scientific and Industrial Research Organisation, priority 2015, dated 2022)
